According to paper PMC5944028, “Nonclinical and clinical pharmacological characterization of the potent and selective cathepsin K inhibitor MIV-711” (Journal of Translational Medicine, 2018):

What was measured:
[1] = Human safety and tolerability, single ascending dose study; format: in vivo, human healthy subjects
Description: Twenty-seven healthy male and female subjects (18 male and 9 female) of any ethnic origin (24 White, 1 Asian, 1 Black, 1 Black/Caribbean White), aged between 19 and 64 years, and with a body mass index (BMI) between 18.0 and 32.0 kg/m^2, were selected for this study. Inclusion criteria for enrollment followed the standard practice for first-in-man studies.
This was a randomized, double-blind, placebo-controlled, sequential, single-ascending dose study conducted at a single site with the objective of evaluating the safety, tolerability, pharmacokinetics (PK) and pharmacodynamics of MIV-711. Subjects were randomized into 3 groups using a computer-generated pseudo-random permutation procedure. Each group consisted of 9 subjects with at least 3 subjects of each gender per group and subjects participated in 1–2 treatment periods. There was a minimum of 10 days between dose escalations and a minimum of 20 days between dosing occasions for individual subjects. For each subsequent dosing occasion, the decision to escalate the dose to the next level was taken after a thorough review of the safety, tolerability and PK data. In each treatment period, 7 subjects received MIV-711 and 2 received placebo (comprising of 1 subject of each gender). Dosing occurred on the morning of Day 1 following an overnight fast and subjects were kept in the fasted state until approximately 4.5 h after dosing. MIV-711 was given as a combination of 10 or 40 mg hard gelatin capsules, while placebo was given in similar capsules of identical appearance.
Standard safety assessments were performed throughout the study and included physical examination, vital signs, 12-lead electrocardiogram (ECG), continuous ECG Holter monitoring, hematology, biochemistry, urinalysis and adverse event monitoring.
In the nonclinical studies, two-way ANOVA was used to assess the effects of MIV-711 on plasma CTX-I. Pearson’s correlation was used when comparing plasma exposure of MIV-711 with inhibitory effects on CTX-I. Student’s unpaired t test was used when assessing the effect of MIV-711 on urine biomarkers. In the clinical study, PK parameters were summarized by dose level using descriptive statistics. The dose proportionality for AUC and Cmax was assessed by using a power model with determination of the linear regression slope with a 95% confidence interval. Change in CTX-I from baseline at 24 h after dose was calculated by dose level and summarized using descriptive statistics. In addition, the 95% confidence interval for the difference between each MIV-711 group and the placebo group for these variables was calculated by dose level. Pearson’s correlation was used when comparing plasma exposure of MIV-711 with inhibitory effects on CTX-I. A time-matched and placebo-corrected approach was used to evaluate the effects of MIV-711 on the QTcF interval from the Holter ECG recordings. The change-from-baseline QTcF at post-dose time points was analyzed using an ANCOVA model including the treatment, time (categorical), and treatment-by-time interaction as fixed effects, baseline QTcF as a covariate, and subject as random effect. A p value < 0.05 was considered statistically significant. Data are expressed as mean ± SEM.

urine CTX-I = experiment: Monkey urine CTX-I, multiple doses; format: in vivo, cynomolgus monkeys (Macaca fascicularis)
Experimental: Biomarkers such as NTX-I (bone resorption) and CTX-II (cartilage degradation) are typically measured in urine. Additional experiments in which urine was collected were therefore performed. In these experiments, four cynomolgus monkeys (Macaca fascicularis) were used (Aptuit, Edinburgh, UK). The animals were healthy young females weighing 3.5–4 kg. Animals were dosed with vehicle or MIV-711 via oral gavage at a dose volume of 5 mL/kg between 7:30 and 8:30 a.m. Animals first received vehicle via oral gavage for five consecutive days. After a washout period, the animals then received MIV-711 (30 µmol/kg) via oral gavage for five consecutive days.
Urine was collected between 8–12 a.m., 12 a.m.–4 p.m. and 4 p.m.–8 a.m. on Day 1 and Day 5 of respective treatment. Biomarkers were measured in each urine sample, corrected for creatinine, and the mean value of the three samples on Day 1 and Day 5 was calculated. The effect of MIV-711 was evaluated by comparing biomarkers in urine samples collected on Day 1 and Day 5 with respective vehicle sample. [drawing 3]
The quantification of CTX-I in monkey plasma samples and human serum samples was performed using a commercially available kit (Serum CrossLaps ELISA, IDS Nordic, Herlev, Denmark). The levels of CTX-I in monkey urine samples were measured using a commercially available kit (Urine BETA CrossLaps ELISA, IDS Nordic). […]

[2] = single ascending doses 20–600 mg

In the case of `C#C[C@@H]1CN(C(=O)[C@H](CC(C)C)NC(=O)c2ccc(-c3nc(N4CCN(C)CC4)sc3F)cc2)[C@@H]2C(=O)CO[C@H]12` [MIV-711], the “Adverse events considered possibly related to treatment” value ([1]; 6/35, all mild) is reported as 17%, the “Subjects reporting adverse events” value ([1]; 11/35 MIV-711-treated subjects) is reported as 31% and the “Upper confidence interval of the projected QTcF effect at the highest observed plasma levels” value ([1]; maximum dose of 600 mg) is reported as “below 10 ms”. The Safety and tolerability [1, 2] was “safe and well-tolerated”, the Serious adverse events [1, 2] was “no serious adverse events” and the “Reduction of urinary CTX-I compared to vehicle” value (urine CTX-I; 30 µmol/kg p.o. once daily for 5 days, creatinine-corrected) was 93%. The “Effect on urinary CTX-I compared to vehicle” value (urine CTX-I; single dose 30 µmol/kg p.o. (Day 1)) was “immediately reduced”.
